For series [1], the target named is Phosphatidylinositol 4,5-bisphosphate 3-kinase catalytic subunit beta isoform (Homo sapiens, UniProt P42338). As to the kind of experiment: Inhibition of PI3Kbeta (unknown origin) using biotin-PIP3 as substrate preincubated for 15 mins followed by substrate addition and measured after 60 mins by fluorescence polarization assay. (In general: Polarisation of emitted light reports the rotation of a fluorescent probe.)

For a further series, the target named is Albumin (Homo sapiens, UniProt P02768). As to the kind of experiment: Binding affinity to human serum albumin by HPLC analysis. The class given is ADME. Conditions: isolated protein.
A short description of series [2]: Solubility of compound by CLND method. The class given is physicochemical.
The nature of series [3]: Lipophilicity, logD of compound at pH 7.4 by HPLC-MS analysis. The note with it: buffer.
The target in series [4] is Phosphatidylinositol 4,5-bisphosphate 3-kinase catalytic subunit alpha isoform (Homo sapiens, UniProt P42336).
Description: Inhibition of PI3Kalpha (unknown origin) using biotin-PIP3 as substrate preincubated for 15 mins followed by substrate addition and measured after 60 mins by fluorescence polarization assay
For series [5], the target named is T1, Phosphatidylinositol 4,5-bisphosphate 3-kinase catalytic subunit delta isoform (Homo sapiens, UniProt O00329).
T1 sequence (O00329 whole entry): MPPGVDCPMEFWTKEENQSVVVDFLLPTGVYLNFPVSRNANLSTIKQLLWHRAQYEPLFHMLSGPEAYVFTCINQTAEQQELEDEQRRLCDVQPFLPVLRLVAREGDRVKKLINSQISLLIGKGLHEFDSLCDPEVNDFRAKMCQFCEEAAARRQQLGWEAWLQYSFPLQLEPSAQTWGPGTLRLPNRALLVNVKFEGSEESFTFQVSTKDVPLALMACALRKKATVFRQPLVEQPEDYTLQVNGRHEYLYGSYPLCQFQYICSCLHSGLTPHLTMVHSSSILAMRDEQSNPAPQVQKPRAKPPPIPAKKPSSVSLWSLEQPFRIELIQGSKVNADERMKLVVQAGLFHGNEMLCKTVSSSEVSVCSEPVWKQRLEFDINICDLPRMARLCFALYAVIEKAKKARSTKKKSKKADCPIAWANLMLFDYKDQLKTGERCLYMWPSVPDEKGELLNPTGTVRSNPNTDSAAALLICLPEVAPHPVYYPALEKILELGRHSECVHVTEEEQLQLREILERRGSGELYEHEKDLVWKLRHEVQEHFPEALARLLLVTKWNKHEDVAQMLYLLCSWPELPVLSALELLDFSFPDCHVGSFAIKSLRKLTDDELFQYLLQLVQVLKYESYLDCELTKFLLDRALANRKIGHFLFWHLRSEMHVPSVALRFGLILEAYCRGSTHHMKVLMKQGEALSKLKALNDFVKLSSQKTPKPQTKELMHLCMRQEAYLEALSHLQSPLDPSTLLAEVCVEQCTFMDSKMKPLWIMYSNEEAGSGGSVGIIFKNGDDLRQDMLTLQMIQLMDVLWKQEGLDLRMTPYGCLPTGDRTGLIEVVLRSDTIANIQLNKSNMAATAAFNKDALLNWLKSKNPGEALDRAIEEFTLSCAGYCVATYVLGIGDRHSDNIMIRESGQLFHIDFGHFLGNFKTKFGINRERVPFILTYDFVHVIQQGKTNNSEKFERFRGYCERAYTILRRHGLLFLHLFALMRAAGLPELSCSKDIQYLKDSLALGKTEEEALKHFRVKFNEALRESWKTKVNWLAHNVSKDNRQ
Description: Inhibition of PI3Kdelta (unknown origin) using biotin-PIP3 as substrate preincubated for 15 mins followed by substrate addition and measured after 60 mins by fluorescence polarization assay

The target in series [6] is Phosphatidylinositol 4,5-bisphosphate 3-kinase catalytic subunit gamma isoform (Homo sapiens, UniProt P48736).
Description: Inhibition of PI3Kgamma (unknown origin) using biotin-PIP3 as substrate preincubated for 15 mins followed by substrate addition and measured after 60 mins by fluorescence polarization assay

Values after ≈ are worked out from the molar mass of the structure shown. Some results are limits rather than exact numbers.

Albumin, sequence (P02768 whole entry): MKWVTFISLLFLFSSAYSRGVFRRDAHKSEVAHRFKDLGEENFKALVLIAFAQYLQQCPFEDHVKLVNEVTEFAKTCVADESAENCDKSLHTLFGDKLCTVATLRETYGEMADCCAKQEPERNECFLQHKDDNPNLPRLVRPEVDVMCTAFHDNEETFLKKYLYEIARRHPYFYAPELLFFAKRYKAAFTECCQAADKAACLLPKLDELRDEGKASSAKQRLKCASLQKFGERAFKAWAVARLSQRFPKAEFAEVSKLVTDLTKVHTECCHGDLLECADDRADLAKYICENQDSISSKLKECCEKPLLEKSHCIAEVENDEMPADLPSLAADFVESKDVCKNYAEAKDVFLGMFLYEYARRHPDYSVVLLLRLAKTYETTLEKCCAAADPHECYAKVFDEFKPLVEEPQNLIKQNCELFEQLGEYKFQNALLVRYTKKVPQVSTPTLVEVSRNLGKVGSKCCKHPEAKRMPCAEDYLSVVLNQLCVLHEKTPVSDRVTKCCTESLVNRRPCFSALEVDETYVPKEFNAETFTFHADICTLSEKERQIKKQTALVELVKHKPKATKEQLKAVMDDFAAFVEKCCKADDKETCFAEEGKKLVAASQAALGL
Phosphatidylinositol 4,5-bisphosphate 3-kinase catalytic subunit alpha isoform, sequence (P42336 whole entry, canonical isoform): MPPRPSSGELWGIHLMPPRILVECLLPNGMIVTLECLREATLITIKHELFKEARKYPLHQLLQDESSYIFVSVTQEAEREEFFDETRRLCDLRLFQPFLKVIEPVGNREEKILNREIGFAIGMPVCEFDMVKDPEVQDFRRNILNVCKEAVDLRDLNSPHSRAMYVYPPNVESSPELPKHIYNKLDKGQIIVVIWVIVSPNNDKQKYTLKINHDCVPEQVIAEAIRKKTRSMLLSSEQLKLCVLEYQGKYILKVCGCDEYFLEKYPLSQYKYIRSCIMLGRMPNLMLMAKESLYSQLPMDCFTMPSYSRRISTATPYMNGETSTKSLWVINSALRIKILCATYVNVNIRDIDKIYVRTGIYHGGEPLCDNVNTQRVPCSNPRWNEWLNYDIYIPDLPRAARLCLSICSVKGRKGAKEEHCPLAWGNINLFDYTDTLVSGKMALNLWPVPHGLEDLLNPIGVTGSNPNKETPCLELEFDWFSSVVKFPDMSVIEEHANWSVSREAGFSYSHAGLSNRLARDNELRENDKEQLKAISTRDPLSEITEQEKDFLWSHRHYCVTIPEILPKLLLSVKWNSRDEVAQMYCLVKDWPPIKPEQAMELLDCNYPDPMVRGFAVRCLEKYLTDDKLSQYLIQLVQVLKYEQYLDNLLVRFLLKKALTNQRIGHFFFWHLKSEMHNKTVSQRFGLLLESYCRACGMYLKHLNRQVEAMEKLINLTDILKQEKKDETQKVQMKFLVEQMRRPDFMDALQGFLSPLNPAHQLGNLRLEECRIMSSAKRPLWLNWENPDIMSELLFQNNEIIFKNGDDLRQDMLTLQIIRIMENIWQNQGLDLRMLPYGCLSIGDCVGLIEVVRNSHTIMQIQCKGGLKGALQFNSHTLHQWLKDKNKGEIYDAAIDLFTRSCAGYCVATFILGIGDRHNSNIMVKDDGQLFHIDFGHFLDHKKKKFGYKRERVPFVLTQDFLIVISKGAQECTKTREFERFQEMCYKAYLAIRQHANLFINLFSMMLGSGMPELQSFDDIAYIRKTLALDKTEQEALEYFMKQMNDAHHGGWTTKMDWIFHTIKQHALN
Phosphatidylinositol 4,5-bisphosphate 3-kinase catalytic subunit gamma isoform, sequence (P48736 whole entry, canonical isoform): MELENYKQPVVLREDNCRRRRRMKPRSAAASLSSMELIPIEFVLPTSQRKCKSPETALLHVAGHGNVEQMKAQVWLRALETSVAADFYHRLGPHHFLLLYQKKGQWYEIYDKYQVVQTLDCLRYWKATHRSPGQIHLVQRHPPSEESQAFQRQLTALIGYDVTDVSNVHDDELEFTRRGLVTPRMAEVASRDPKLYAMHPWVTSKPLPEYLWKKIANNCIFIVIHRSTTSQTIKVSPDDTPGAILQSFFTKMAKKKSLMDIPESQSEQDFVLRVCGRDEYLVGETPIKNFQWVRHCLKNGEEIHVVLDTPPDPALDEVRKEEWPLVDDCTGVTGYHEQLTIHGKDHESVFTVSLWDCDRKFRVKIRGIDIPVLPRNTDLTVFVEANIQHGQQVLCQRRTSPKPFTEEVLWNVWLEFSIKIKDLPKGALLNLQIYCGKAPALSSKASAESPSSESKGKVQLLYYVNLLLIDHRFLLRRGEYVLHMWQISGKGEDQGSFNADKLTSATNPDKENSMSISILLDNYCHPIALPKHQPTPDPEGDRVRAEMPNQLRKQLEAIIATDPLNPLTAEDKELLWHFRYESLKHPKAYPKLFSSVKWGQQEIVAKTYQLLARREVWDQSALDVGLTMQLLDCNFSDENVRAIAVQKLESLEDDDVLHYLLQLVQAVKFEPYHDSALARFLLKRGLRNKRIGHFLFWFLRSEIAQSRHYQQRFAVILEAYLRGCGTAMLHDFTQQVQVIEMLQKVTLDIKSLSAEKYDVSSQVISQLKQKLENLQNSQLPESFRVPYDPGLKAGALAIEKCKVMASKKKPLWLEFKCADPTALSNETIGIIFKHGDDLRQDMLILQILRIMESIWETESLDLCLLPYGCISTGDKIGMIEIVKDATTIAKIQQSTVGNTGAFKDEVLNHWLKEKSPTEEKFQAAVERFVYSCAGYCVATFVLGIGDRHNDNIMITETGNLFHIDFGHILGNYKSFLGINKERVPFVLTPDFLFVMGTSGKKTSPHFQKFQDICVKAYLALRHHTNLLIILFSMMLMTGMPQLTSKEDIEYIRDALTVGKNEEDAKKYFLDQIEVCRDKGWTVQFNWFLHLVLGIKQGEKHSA
Phosphatidylinositol 4,5-bisphosphate 3-kinase catalytic subunit beta isoform, sequence (P42338 whole entry, canonical isoform): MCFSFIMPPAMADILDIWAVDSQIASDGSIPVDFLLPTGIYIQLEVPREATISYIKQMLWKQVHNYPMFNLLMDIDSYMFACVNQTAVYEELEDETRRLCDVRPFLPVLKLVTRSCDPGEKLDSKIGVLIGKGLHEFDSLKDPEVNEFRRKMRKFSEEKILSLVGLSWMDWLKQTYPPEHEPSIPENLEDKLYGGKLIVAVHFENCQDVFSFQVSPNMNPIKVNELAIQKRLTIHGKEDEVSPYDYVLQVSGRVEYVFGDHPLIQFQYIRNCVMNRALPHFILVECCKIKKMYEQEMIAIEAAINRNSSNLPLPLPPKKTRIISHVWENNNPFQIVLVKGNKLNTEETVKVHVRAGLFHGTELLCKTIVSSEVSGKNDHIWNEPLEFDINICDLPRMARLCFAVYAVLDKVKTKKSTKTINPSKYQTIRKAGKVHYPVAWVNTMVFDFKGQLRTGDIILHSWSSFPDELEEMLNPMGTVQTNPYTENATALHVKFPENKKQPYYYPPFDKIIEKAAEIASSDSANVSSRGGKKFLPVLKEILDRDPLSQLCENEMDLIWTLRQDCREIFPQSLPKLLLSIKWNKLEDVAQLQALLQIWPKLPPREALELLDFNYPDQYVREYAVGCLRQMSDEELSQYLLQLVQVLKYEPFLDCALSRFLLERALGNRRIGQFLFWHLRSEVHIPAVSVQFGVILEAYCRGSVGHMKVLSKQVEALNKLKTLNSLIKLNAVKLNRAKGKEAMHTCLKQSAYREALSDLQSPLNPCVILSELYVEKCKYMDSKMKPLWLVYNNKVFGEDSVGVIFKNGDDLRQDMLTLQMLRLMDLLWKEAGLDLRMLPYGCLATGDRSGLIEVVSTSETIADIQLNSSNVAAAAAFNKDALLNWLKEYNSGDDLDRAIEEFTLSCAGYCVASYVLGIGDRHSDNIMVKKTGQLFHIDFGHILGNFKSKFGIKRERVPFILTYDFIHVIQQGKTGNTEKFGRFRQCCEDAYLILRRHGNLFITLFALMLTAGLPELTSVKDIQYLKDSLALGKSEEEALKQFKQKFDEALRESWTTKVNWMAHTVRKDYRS

Turning to `CS(=O)(=O)NC1CCN(Cc2cc3nc(-c4cnc(N)nc4)nc(N4CCOCC4)c3s2)C1` (racemic), the IC50 in series [1] was 158 nM; in series [4], 10 nM; in series [5] it was 12.6 nM; in series [6], 20 nM. For the same compound, the Activity at Albumin was determined as 80.9%. This compound also gave a kinetic solubility in series [2] of no less than 491 µM. The compound also showed a logD in series [3] of 2.4.

On to `COCC(=O)N(C)C1CCCN(Cc2cc3nc(-c4cccc5[nH]ccc45)nc(N4CCOCC4)c3s2)C1` (racemic), for which the IC50 in series [1] is 3160 nM; in series [4] it was 3160 nM; in series [5] it was 20 nM; in series [6], 2000 nM. The same compound showed an Activity at Albumin of 95.2%. The compound further came in with a solubility (kinetic) in series [2] of 85 µM (≈ 45.4 µg/mL). This compound displayed a logD in series [3] of 4.8.

Turning to `COCC(=O)N(C)C1CCN(Cc2cc3nc(-c4cccc5[nH]ccc45)nc(N4CCOCC4)c3s2)C1` (racemic), the IC50 in series [1] is 2510 nM; in series [4], 3980 nM; in series [5], 10 nM; in series [6], 1000 nM. In addition, the Activity at Albumin is given as 94.1%. This compound came in with a kinetic solubility in series [2] of 179 µM (≈ 93.2 µg/mL).

Consider `CN(C1CCN(Cc2cc3nc(-c4cnc(N)nc4)nc(N4CCOCC4)c3s2)CC1)S(C)(=O)=O`, for which the IC50 in series [1] was 251 nM; in series [4] it was 15.8 nM; in series [5] it was 7.94 nM; in series [6], 25.1 nM. At Albumin, this compound had an Activity of 87.8%. This compound also yielded a solubility (kinetic) in series [2] of 118 µM (≈ 61.2 µg/mL). In series [3], this compound yielded a logD of 3.3.

Take `COCC(=O)N(C)C1CCN(Cc2cc3nc(-c4cccc5[nH]ccc45)nc(N4CCOCC4)c3s2)CC1`: the IC50 was 1000 nM in series [1], 10000 nM in series [4] and 12.6 nM in series [5]. The compound further came in with an Activity at Albumin of 94.3%. The compound also had a solubility (kinetic) in series [2] of 238 µM (≈ 127 µg/mL). In series [3], this compound returned a logD of 4.6.

In the case of `COCC(=O)N(C)C1CCN(Cc2cc3nc(-c4cnc(N)nc4)nc(N4CCOCC4)c3s2)C1` (racemic), the IC50 in series [1] was 251 nM; in series [4], 15.8 nM; in series [5], 6.31 nM; in series [6], 7.94 nM. At Albumin, this compound gave an Activity of 81.2%. This compound showed a kinetic solubility in series [2] of no less than 2720 µM. The compound also gave a logD in series [3] of 2.7.

Turning to `CC(=O)N(C)C1CCN(Cc2cc3nc(-c4cccc5[nH]ccc45)nc(N4CCOCC4)c3s2)C1` (racemic), the IC50 in series [1] was 501 nM; in series [4], 794 nM; in series [5], 6.31 nM; in series [6] it was 631 nM. Also, the Activity at Albumin is 94.4%. This compound came in with a solubility (kinetic) in series [2] of 251 µM (≈ 123 µg/mL). In series [3], this compound showed a logD of 4.5.

As to `CN(C1CCCN(Cc2cc3nc(-c4cccc5[nH]ccc45)nc(N4CCOCC4)c3s2)C1)S(C)(=O)=O` (racemic), the IC50 is 1580 nM in series [1], 794 nM in series [4], 6.31 nM in series [5] and 501 nM in series [6]. The compound also had an Activity at Albumin of 95.6%. In series [3], this compound displayed a pH-dependent lipophilicity (logD) of 5.5.

Take `CC(=O)N(C)C1CCN(Cc2cc3nc(-c4cccc5[nH]ccc45)nc(N4CCOCC4)c3s2)CC1`: the IC50 in series [1] was 2000 nM; in series [4], 3160 nM; in series [5] it was 12.6 nM. Besides, at Albumin, the Activity came to 94.5%. This compound yielded a logD in series [3] of 4.4.

For `COCC(=O)NC1CCCN(Cc2cc3nc(-c4cccc5[nH]ncc45)nc(N4CCOCC4)c3s2)C1` (racemic), the IC50 in series [1] is 6310 nM; in series [4], 398 nM; in series [5], 100 nM; in series [6], 2510 nM. This compound yielded a logD in series [3] of 4.5.

Consider `COCC(=O)NC1CCN(Cc2cc3nc(-c4cnc(N)nc4)nc(N4CCOCC4)c3s2)C1` (racemic), for which the IC50 in series [1] is 501 nM; in series [4], 39.8 nM; in series [5], 79.4 nM; in series [6], 50.1 nM. The same compound gave a logD in series [3] of 2.3.

Turning to `CS(=O)(=O)NC1CCN(Cc2cc3nc(-c4cccc5[nH]ccc45)nc(N4CCOCC4)c3s2)C1` (racemic), the IC50 is 631 nM in series [1], 1580 nM in series [4], 25.1 nM in series [5] and 1580 nM in series [6]. In series [3], the logD was determined as 4.3.

As usually defined, the IC50 is the concentration that inhibits the measured activity by half. As usually defined, the solubility (kinetic) is solubility judged after dilution from a stock solution rather than from solid. By logD is commonly meant lipophilicity at a set pH, counting ionised and neutral species. Higher therefore signals a more lipophilic compound.
